Laboratory results taken from PMC9025336 (Antibiotics, 2022).
In brackets after ≈: the same amount, converted by molar mass. Read-outs that look alike come from different tables or passages of the source. Ends that are not written are not given here. Peptide text beside a SMILES is read from it.

Columns and labels:
[1] = lysates of E. coli BW25113; conditions: E. coli BW25113, 37 °C, up to 24 h
[2] = lysates of E. coli Rosetta pLysS; conditions: 37 °C, up to 24 h
[3] = target: 70S ribosome extract of E. coli BW25113 (E. coli BW25113 (endogenous))
[4] = target: 70S ribosome extract of E. coli BW25113 (E. coli BW25113 (endogenous)); test: fluorescence polarisation; competition: unlabeled peptide (2-fold series from 656 µmol/L) pre-incubated with BW25113 ribosome extract (28 °C, 90 min), then cf-Api137 (10 µL, 80 nmol/L) added (28 °C, 90 min); ribosome preparation buffer; Ki calculated from IC50
[5] = target: 70S ribosome extract of E. coli BW25113 (E. coli BW25113 (endogenous)); test: fluorescence polarisation; competition: unlabeled peptide (2-fold series from 656 µmol/L) pre-incubated with BW25113 ribosome extract (28 °C, 90 min), then cf-Onc112 (10 µL, 80 nmol/L) added (28 °C, 90 min); ribosome preparation buffer; Ki calculated from IC50
[6] = tested on: E. coli Rosetta DE3 pLysS; test: MIC, liquid broth microdilution; type: cell-based, Escherichia coli; conditions: 25% MHBII medium, 7.5 × 10^6 CFU/mL, 37 °C, 20 ± 2 h, turbidity 600 nm, at least twice in triplicate
Experimental: (§1) The minimal inhibitory concentrations (MIC) were determined at least twice in triplicate using a liquid broth microdilution assay in sterile 96-well plates and a total volume of 100 μL per well. Aqueous peptide solutions were serially 2-fold diluted in 25% MHBII or 33% TSB medium in a volume of 50 µL. An overnight culture was diluted in 25% MHBII or 33% TSB medium to 1.5 × 10^7 CFU/mL, and an aliquot of 50 μL was added to each well. The final cell count in each well was 7.5 × 10^6 CFU/mL. The plates were incubated at 37 °C for 20 ± 2 h. The turbidity of each well was measured at a wavelength of 600 nm. The MIC was defined as the lowest peptide concentration where the turbidity was identical to medium only.

E. coli BW25113 = type: cell-based, Escherichia coli; conditions: BW25113, 2 h
Experimental: as §1, with “The plates were incubated at 37 °C for 20 ± 2 h.” left out

[7] = tested on: E. coli BL21 (DE3) RIL ribosome extract; conditions: values published for E. coli BL21 (DE3) RIL ribosome extract; read-out: Kd (printed in column Ros); cited from earlier work
Excerpt: Table 2 Antibacterial activities, dissociation (Kd), and inhibition constants (Ki) of ribosome binding obtained for all PrAMPs included in the current study for E. coli strains BW25113 (BW) and Rosetta DE3 pLysS (Ros). | column: Kd [µmol/L] ** / Ros

[8] = tested on: E. coli BL21 (DE3) RIL ribosome extract; conditions: values published for E. coli BL21 (DE3) RIL ribosome extract; read-out: Ki, cf-Api137; cited from earlier work
[9] = tested on: E. coli BL21 (DE3) RIL ribosome extract; conditions: values published for E. coli BL21 (DE3) RIL ribosome extract; read-out: Ki, cf-Onc112; cited from earlier work
Excerpt: Table 2 Antibacterial activities, dissociation (Kd), and inhibition constants (Ki) of ribosome binding obtained for all PrAMPs included in the current study for E. coli strains BW25113 (BW) and Rosetta DE3 pLysS (Ros). | column: Ki [µmol/L] *** / cf-Onc112

[10] = target: 70S ribosome extract of E. coli BW25113 (E. coli BW25113 (endogenous)); remark: listed apart in the source

Ki [4] | Ki [5] | Molecule | fragment found [1] | fragment found [2] | other results
 |  | gu-ONNRPVYIPRPRPPHPRL-OH | Api137 1-17 (Gu-ONNRPVYIPRPRPPHPR-OH), major | Api137 1-17 (Gu-ONNRPVYIPRPRPPHPR-OH), major | 
2 nM | 219 nM | Api137 (peptide) |  |  | inhibition of in vitro translation of GFP (PureExpress Delta RF123 kit with the kit's own ribosomes, RF1 added), GFP fluorescence relative to no PrAMP; peptide 0.05, 5 and 50 µmol/L [3]: 77%
 |  | GNNRPIYIPRPRPPHPRPIRV-OH | Api805 1-16 (GNNRPIYIPRPRPPHP-OH), major | Api805 1-16 (GNNRPIYIPRPRPPHP-OH), major | 
 |  | CC[C@H](C)[C@H](NC(=O)[C@@H]1CCCN1C(=O)[C@H](CCCNC(=N)N)NC(=O)[C@@H]1CCCN1C(=O)[C@H](Cc1c[nH]cn1)NC(=O)[C@H](CO)NC(=O)[C@@H](NC(=O)[C@@H]1CCCN1C(=O)[C@H](CCCNC(=N)N)NC(=O)[C@@H]1CCCN1C(=O)[C@H](CO)NC(=O)[C@H](Cc1ccc(O)cc1)NC(=O)[C@@H]1CCCN1C(=O)[C@H](CCCNC(=N)N)NC(=O)[C@@H]1CCCN1C(=O)[C@H](CCCCN)NC(=O)CN)[C@@H](C)O)C(=O)N[C@@H](CCCNC(=N)N)C(=O)N[C@H](C(=O)O)C(C)C [Drosocin] (H-GKPRPYSPRPTSHPRPIRV-OH; N-terminus assumed) |  |  | MIC, Ros [6]: 8 µg/mL (≈ 3.64 µM); MIC, BW (E. coli BW25113): 128 µg/mL (≈ 58.2 µM); Kd [7]: 1080 nM; Ki [8]: 9 nM; Ki [9]: 1780 nM
1070 nM | 489 nM | GNNRPIYIPRPRPPHPRPIRV-OH [Api805] |  |  | inhibition of in vitro translation of GFP (PureExpress Delta RF123 kit with the kit's own ribosomes, RF1 added), GFP fluorescence relative to no PrAMP; peptide 0.05, 5 and 50 µmol/L [10]: 52%; inhibition of in vitro translation of GFP (PureExpress Delta RF123 kit with the kit's own ribosomes, no release factor), GFP fluorescence relative to no PrAMP; peptide 0.05, 5 and 50 µmol/L [10]: 38%
